Assays:
PC12 (TrkA & p75) = assay: 125I-NGF binding displacement in PC12 cells; set-up: species or system rat; conditions: for NGF binding displacement, dose-response curve: PC12 cells expressing TrkA and p75
Procedure: The method for acquiring the PC12 data described in Table 1 is described herein in Example 1. Each experiment was done at least once with an n value of 4 for each data point. (n/a=not acquired)
All cells were incubated at 37° C. in 5% CO2. PC12 cells were maintained in RPMI-1640 medium supplemented with 10% fetal bovine serum (FBS). A875 human melanoma cells were maintained in DMEM with 10% FBS. HEK 293 cells were stably transfected with human TrkA plasmid (see below) and maintained in DMEM with 10% FBS and G418 (600 μg/mL) for selection.
NGF binding was evaluated using methods familiar to those who are skilled in the art. Briefly, cells expressing one or both NGF receptors (PC12: TrkA+p75; A875: p75 alone; HEK_TrkA: TrkA alone) were harvested by replacing the medium with calcium-magnesium free balanced salt (Grey's) solution and incubating at 37° C. for 15 min. For NGF binding, cells were resuspended at a concentration of 2×10^6 cells/mL in HEPES-Krebs-Ringer (HKR) buffer (10 mM HEPES; 125 mM NaCl; 4.8 mM KCl; 1.3 mM CaCl2; 1.2 mM MgSO4; 1.2 mM KH2PO4; 1 mg/ml BSA; 1 mg/ml glucose; pH 7.4) and exposed to ^125I-NGF (˜0.1 nM) in the presence or absence of varying concentrations of the compound. Non-specific binding was determined for reference by incubating ^125I-NGF with an excess of non-radioactive NGF in the abence of compound. Following a two-hour incubation period at 4° C., ^125I-NGF bound to the cells was quantified in a gamma radiation counter following separation from unbound NGF by filtration or centrifugation through glycerol (10% in HKR). Inhibition of binding was calculated as a percent of the specific binding (calculated as the differential between ^125I-NGF binding in the absence and presence of an excess of non-radioactive NGF without compound). Dose-response inhibition curves were typically generated with seven concentrations of a given compound, with three replicates for each concentration. For most compounds, multiple dose-response curves were generated.
The IC50 data shown in Table 1 were acquired using the procedure described herein using PC12 cells.

[1] = tested on: NGF-induced Erk 1/2 phosphorylation in PC12 cells; assay: NGF-induced Erk 1/2 phosphorylation, Western blot; type: cell-based, rat; conditions: NGF 5 ng/mL
Procedure: This assay is useful for establishing that the compounds of the invention are functional NGF antagonists, not receptor agonists (an agonist could conceivably block NGF binding but actually activate the receptor). Erk 1/2 is a kinase activated down stream of TrkA and is a well studied member of the NGF-induced signal transduction cascade.
PC12 cells expressing TrkA and p75 were acutely exposed to 5 ng/mL NGF (15 min; 37° C.; 5% CO2) that was pre-incubated (30 min; room temperature) with or without the compounds. Cells were lysed in Laemmli sample buffer (for SDS-PAGE) or a lysis buffer containing Triton X-100 (for ELISA). Following SDS-PAGE, proteins were electroblotted onto nitrocellulose and immunoprobed for phosphorylated Erk 1 and 2. Blocking and primary antibody incubations of immunoblots were performed in Tris-buffered saline-Tween (10 mM Tris, pH 8.0, 150 mM NaCl, and 0.2% Tween 20) supplemented with 5% (w/v) bovine serum albumin (BSA); secondary antibody incubations were performed in 5% (w/v) dried skim milk powder. Immunoreactive bands were detected by chemiluminescence.

[2] = Writhing Test (acetic acid abdominal contraction test); type: in vivo; conditions: mice
Procedure: The acetic acid abdominal contraction test (Martinez et al., Pain 1999; 81: 179) was used to determine the efficacy of different compounds in a model of acute visceral chemical nociception. […] Compound or vehicle was administered (i.p. or s.c.) 15-45 minutes prior to the acetic acid injection. Each episode of writhing is characterized by a lengthwise stretching of the torso with a concomitant arching of the back.
Statistical analysis was performed using Prism™ 4.01 software package (GraphPad, San Diego, Calif., USA). The difference in response levels between treatment groups and control vehicle group was analyzed using an ANOVA followed by Bonferroni's method for post-hoc pair-wise comparisons. A p value <0.05 was considered to be significant
Animals were treated with vehicle (VEH) or Compound 91 (5 mg/kg i.p.; [CMP 1] and 50 mg/kg i.p. [CMP 2])) 10-20 minutes before the intraperitoneal injection of acetic acid, as described in this example.

In the case of O=C(O)c1ccc(Cl)c(N2C(=O)c3ccc4c5c(ccc(c35)C2=O)C(=O)N(c2cc(C(=O)O)ccc2Cl)C4=O)c1 [Compound 18, 3-[7-(1-chloro-4-carboxy-phenyl)-1,3,6,8-tetraoxo-3,6,7,8-tetrahydro-1H-benzo[lmn][3,8]phenanthrolin-2-yl]-4-chloro-benzoic acid], the “NGF binding displacement, dose-response curve” value (PC12 (TrkA & p75)) is reported as “effectively blocks NGF binding” and the “PC12 (TrkA & p75) Single point (% max binding) Mean” value (“PC12 … (% max binding) Mean” below) (PC12 (TrkA & p75); compound concentration 50 μM) is reported as “*** (0 > *** > 30)”.
In the case of O=C1c2ccc3c4c(ccc(c24)C(=O)N1c1ccc(S(=O)(=O)O)cc1)C(=O)N(c1ccc(S(=O)(=O)O)cc1)C3=O [Compound 54, 4-(1,3,6,8-Tetraoxo-7-(4-benzenesulfonic acid)-3,6,7,8-tetrahydro-1H-benzo[lmn][3,8]phenanthrolin-2-yl)-benzenesulfonic acid], the “PC12 … (% max binding) Mean” value (PC12 (TrkA & p75); compound concentration 50 μM) is reported as “*** (0 > *** > 30)”.
With O=C(O)c1ccc(Cl)c(N2C(=O)c3ccc4c5c(ccc(c35)C2=O)C(=O)OC4=O)c1 [Compound 58, 4-Chloro-3-(1,3,6,8-tetraoxo-1,3,6,8-tetrahydro-2-oxa-7-aza-pyren-7-yl)-benzoic acid] the “PC12 … (% max binding) Mean” value (PC12 (TrkA & p75); compound concentration 50 μM) was “*** (0 > *** > 30)”.
With O=C(O)CCCN1C(=O)c2ccc3c4c(ccc(c24)C1=O)C(=O)N(c1cc(C(=O)O)ccc1Cl)C3=O [Compound 59, 3-[7-(3-Carboxy-propyl)-1,3,6,8-tetraoxo-3,6,7,8-tetrahydro-1H-benzo[lmn][3,8]phenanthrolin-2-yl]-4-chloro-benzoic acid] the “PC12 … (% max binding) Mean” value (PC12 (TrkA & p75); compound concentration 50 μM) was “*** (0 > *** > 30)”.
For O=C([O-])c1ccc2nc3c4ccc5c6c(ccc(c(=O)n3c2c1)c46)c(=O)n1c2cc(C(=O)[O-])ccc2nc51.[Na+].[Na+] [Compound 91], the “Inhibition of NGF-induced Erk 1/2 phosphorylation” value [1] was “inhibits NGF-induced Erk 1/2 phosphorylation”, the “NGF binding displacement, dose-response curve” value (PC12 (TrkA & p75)) was “effectively blocks NGF binding” and the “Antinociceptive effect in the Writhing Test” value ([2]; 5 and 50 mg/kg i.p., p<0.01 vs vehicle) was “significant antinociceptive effects”. For the same compound, the “Chemically-induced abdominal contractions (number in 30 minutes)” value ([2]; i.p., n=6, vehicle 58±4, dose of the value (5 or 50 mg/kg) not stated) was 16±9.
With O=c1c2ccc3c4c(ccc(c24)c2nc4ccccc4n12)c(=O)n1c2ccccc2nc31.[K+] [Compound 92, 1,3,6-trioxo-1,2,3,6-tetrahydro-benzo[lmn]benzo[4,5]imidazo[2,1-b][3,8]diphenanthroline potassium salt] the “PC12 … (% max binding) Mean” value (PC12 (TrkA & p75); compound concentration 50 μM) was “* (* > 50)”.
In the case of O=C(O)c1cccc(N2C(=O)c3ccc4c(=O)n5c6cc(C(=O)O)ccc6nc5c5ccc(c3c45)C2=O)c1 [Compound 93, 2-(3-Carboxy-phenyl)-1,3,6-trioxo-1,2,3,6-tetrahydro-benzo[lmn]benzo[4,5]imidazo[2,1-b][3,8]phenanthroline-9-carboxylic acid], the “PC12 … (% max binding) Mean” value (PC12 (TrkA & p75); compound concentration 50 μM) is reported as “** (30 > ** > 50)”.
In the case of O=C(O)CCCN1C(=O)c2ccc3c4c(ccc(c24)C1=O)C(=O)OC3=O [Compound 94], the “PC12 … (% max binding) Mean” value (PC12 (TrkA & p75); compound concentration 25 μM) is reported as “*** (0 > *** > 30)”.
For O=C(O)CCCN1C(=O)c2ccc3c(=O)n4c5cc(C(=O)O)ccc5nc4c4ccc(c2c34)C1=O [Compound 95, 2-(3-Carboxy-propyl)-1,3,6-trioxo-1,2,3,6-tetrahydro-benzo[lmn]benzo[4,5]imidazo[2,1-b][3,8]phenanthroline-9-carboxylic acid], the “PC12 … (% max binding) Mean” value (PC12 (TrkA & p75); compound concentration 25 μM) was “* (* > 50)”.
With O=C(O)c1ccc(Cl)c(N2C(=O)c3ccc4c(=O)n5c6ccccc6nc5c5ccc(c3c45)C2=O)c1 [Compound 98, 2-(5-Carboxy-2-chloro-phenyl)-1,3,6-trioxo-1,2,3,6-tetrahydro-benzo[lmn]benzo[4,5]imidazo[2,1-b][3,8]phenanthroline-9] the “PC12 … (% max binding) Mean” value (PC12 (TrkA & p75); compound concentration 25 μM) was “*** (0 > *** > 30)”.
With O=C(O)c1ccc(Cl)c(N2C(=O)c3ccc4c(=O)n5c6cc(Cl)ccc6nc5c5ccc(c3c45)C2=O)c1 [Compound 99, 2-(5-Carboxy-2-chloro-phenyl)-1,3,6-trioxo-1,2,3,6-tetrahydro-9-chloro-benzo[lmn]benzo[4,5]imidazo[2,1-b][3,8]phenanthroline] the “PC12 … (% max binding) Mean” value (PC12 (TrkA & p75); compound concentration 10 μM) was “*** (0 > *** > 30)”.
In the case of O=C(O)c1ccc(Cl)c(N2C(=O)c3ccc4c(=O)n5c6cc([N+](=O)[O-])ccc6nc5c5ccc(c3c45)C2=O)c1 [Compound 100, 2-(5-Carboxy-2-chloro-phenyl)-1,3,6-trioxo-1,2,3,6-tetrahydro-9-nitro-benzo[lmn]benzo[4,5]imidazo[2,1-b][3,8]phenanthroline], the “PC12 … (% max binding) Mean” value (PC12 (TrkA & p75); compound concentration 10 μM) is reported as “*** (0 > *** > 30)”.
For COc1ccc2nc3c4ccc5c6c(ccc(c(=O)n3c2c1)c64)C(=O)N(c1cc(C(=O)O)ccc1Cl)C5=O [Compound 101, 2-(5-Carboxy-2-chloro-phenyl)-1,3,6-trioxo-1,2,3,6-tetrahydro-9-methoxy-benzo[lmn]benzo[4,5]imidazo[2,1-b][3,8]phenanthroline], the “PC12 … (% max binding) Mean” value (PC12 (TrkA & p75); compound concentration 10 μM) was “** (30 > ** > 50)”.
For COC(=O)c1ccc2nc3c4ccc5c6c(ccc(c(=O)n3c2c1)c64)C(=O)N(c1cc(C(=O)O)ccc1Cl)C5=O [Compound 102, Methyl-2-(5-Carboxy-2-chloro-phenyl)-1,3,6-trioxo-1,2,3,6-tetrahydro-benzo[lmn]benzo[4,5]imidazo[2,1-b][3,8]phenanthroline-9-carboxylic acid ester], the “PC12 … (% max binding) Mean” value (PC12 (TrkA & p75); compound concentration 10 μM) was “* (* > 50)”.

From patent publication US20070099900A1, “Methods of modulating neurotrophin-mediated activity” (PainCeptor Pharma Corporation, priority 2005, published 2007)
